Results from patent publication US9915647B2 (priority 2011, dated 2018).

How the values were obtained:
[1] = system: V79-G3 cells; format: cell-based, Chinese hamster
[2] = system: HEK293 cells; format: cell-based, human

Row | Structure (SMILES) | increase in respiration over the basal level [1] | rotenone sensitivity of glutamate+malate-supported respiration [1] | inhibition of ADP-stimulated respiration [2]
1 | Nc1ncnc2c1ncn2[C@@H]1O[C@H](COP(=O)(O)OP(=O)(O)O)[C@@H](O)[C@H]1O [ADP, adenosine diphosphate] | ~20% |  | 
2 | C=C(C)[C@H]1Cc2c(ccc3c2O[C@@H]2COc4cc(OC)c(OC)cc4[C@@H]2C3=O)O1 [rotenone] |  | sensitive to rotenone | dose-dependently
